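A five-concentration, 48-hour dose response in 96-well plates underlies each endpoint, interpolated linearly between surrounding concentrations. TGI denotes the concentration required for complete inhibition of growth.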
What was measured:
Experiment in all cases: inhibition of tumour cell growth, NCI panel, 48 h
786-0 renal = tested on: 786-0 renal
A498 renal = tested on: A498 renal
A549 NSCLC = tested on: A549 NSCLC
ACHN renal = tested on: ACHN renal
CAKI-1 renal = tested on: CAKI-1 renal
CCRF-CEM leukemia = tested on: CCRF-CEM leukemia
COLO 205 colon = tested on: COLO 205 colon
DLD-1 colon = tested on: DLD-1 colon
DMS 114 small cell lung = tested on: DMS 114 small cell lung
DMS 273 small cell lung = tested on: DMS 273 small cell lung
EKVX NSCLC = tested on: EKVX NSCLC
HCC-2998 colon = tested on: HCC-2998 colon
HCT-116 colon = tested on: HCT-116 colon
HCT-15 colon = tested on: HCT-15 colon
HL-60(TB) leukemia = tested on: HL-60(TB) leukemia
HOP-62 NSCLC = tested on: HOP-62 NSCLC
HOP-92 NSCLC = tested on: HOP-92 NSCLC
HT29 colon = tested on: HT29 colon
IGROV1 ovarian = tested on: IGROV1 ovarian
K-562 leukemia = tested on: K-562 leukemia
KM12 colon = tested on: KM12 colon
KM20L2 colon = tested on: KM20L2 colon
LOX IMVI melanoma = tested on: LOX IMVI melanoma
LXFL 529 NSCLC = tested on: LXFL 529 NSCLC
M14 melanoma = tested on: M14 melanoma
M19-MEL melanoma = tested on: M19-MEL melanoma
MALME-3M melanoma = tested on: MALME-3M melanoma
MOLT-4 leukemia = tested on: MOLT-4 leukemia
NCI-H23 lung = tested on: NCI-H23 lung
NCI-H460 lung = tested on: NCI-H460 lung
NCI-H522 lung = tested on: NCI-H522 lung
OVCAR-3 ovarian = tested on: OVCAR-3 ovarian
OVCAR-4 ovarian = tested on: OVCAR-4 ovarian
OVCAR-5 ovarian = tested on: OVCAR-5 ovarian
OVCAR-8 ovarian = tested on: OVCAR-8 ovarian
RPMI-8226 leukemia = tested on: RPMI-8226 leukemia
RXF 393 renal = tested on: RXF 393 renal
SF-268 CNS = tested on: SF-268 CNS
SF-295 CNS = tested on: SF-295 CNS
SK-MEL-2 melanoma = tested on: SK-MEL-2 melanoma
SK-MEL-28 melanoma = tested on: SK-MEL-28 melanoma
SK-MEL-5 melanoma = tested on: SK-MEL-5 melanoma
SK-OV-3 ovarian = tested on: SK-OV-3 ovarian
SN12C renal = tested on: SN12C renal
SNB-19 CNS = tested on: SNB-19 CNS
SNB-75 CNS = tested on: SNB-75 CNS
SR leukemia = tested on: SR leukemia
SW-620 colon = tested on: SW-620 colon
TK-10 renal = tested on: TK-10 renal
U251 CNS = tested on: U251 CNS
UACC-257 melanoma = tested on: UACC-257 melanoma
UACC-62 melanoma = tested on: UACC-62 melanoma
UO-31 renal = tested on: UO-31 renal
XF 498 CNS = tested on: XF 498 CNS
NCI-H226 lung = tested on: NCI-H226 lung
SNB-78 CNS = tested on: SNB-78 CNS

Nc1nc2c(nc(N)n2Cc2ccccc2)c(=O)[nH]1
TGI (786-0 renal): > 100 µM | TGI (A498 renal): > 100 µM | TGI (A549 NSCLC): > 100 µM | TGI (ACHN renal): > 100 µM | TGI (CAKI-1 renal): > 100 µM | TGI (CCRF-CEM leukemia): > 100 µM | TGI (COLO 205 colon): > 100 µM | TGI (DLD-1 colon): > 100 µM | TGI (DMS 114 small cell lung): > 100 µM | TGI (DMS 273 small cell lung): > 100 µM | TGI (EKVX NSCLC): > 100 µM | TGI (HCC-2998 colon): > 100 µM | TGI (HCT-116 colon): > 100 µM | TGI (HCT-15 colon): > 100 µM | TGI (HL-60(TB) leukemia): > 100 µM | TGI (HOP-62 NSCLC): > 100 µM | TGI (HOP-92 NSCLC): > 100 µM | TGI (HT29 colon): > 100 µM | TGI (IGROV1 ovarian): > 100 µM | TGI (K-562 leukemia): > 100 µM | TGI (KM12 colon): > 100 µM | TGI (KM20L2 colon): > 100 µM | TGI (LOX IMVI melanoma): > 100 µM | TGI (LXFL 529 NSCLC): > 100 µM | TGI (M14 melanoma): > 100 µM | TGI (M19-MEL melanoma): > 100 µM | TGI (MALME-3M melanoma): > 100 µM | TGI (MOLT-4 leukemia): > 100 µM | TGI (NCI-H23 lung): > 100 µM | TGI (NCI-H460 lung): > 100 µM | TGI (NCI-H522 lung): > 100 µM | TGI (OVCAR-3 ovarian): > 100 µM | TGI (OVCAR-4 ovarian): > 100 µM | TGI (OVCAR-5 ovarian): > 100 µM | TGI (OVCAR-8 ovarian): > 100 µM | TGI (RPMI-8226 leukemia): > 100 µM | TGI (RXF 393 renal): > 100 µM | TGI (SF-268 CNS): > 100 µM | TGI (SF-295 CNS): > 100 µM | TGI (SK-MEL-2 melanoma): > 100 µM | TGI (SK-MEL-28 melanoma): > 100 µM | TGI (SK-MEL-5 melanoma): > 100 µM | TGI (SK-OV-3 ovarian): > 100 µM | TGI (SN12C renal): > 100 µM | TGI (SNB-19 CNS): > 100 µM | TGI (SNB-75 CNS): > 100 µM | TGI (SR leukemia): > 100 µM | TGI (SW-620 colon): > 100 µM | TGI (TK-10 renal): > 100 µM | TGI (U251 CNS): > 100 µM | TGI (UACC-257 melanoma): > 100 µM | TGI (UACC-62 melanoma): > 100 µM | TGI (UO-31 renal): > 100 µM | TGI (XF 498 CNS): > 100 µM

O=C(CCN1CCCC1)CC(c1ccccc1)c1c(O)c2ccccc2oc1=O (configuration not stated)
TGI (786-0 renal): > 100 µM | TGI (A549 NSCLC): > 100 µM | TGI (ACHN renal): > 100 µM | TGI (CCRF-CEM leukemia): > 100 µM | TGI (COLO 205 colon): > 100 µM | TGI (DLD-1 colon): > 100 µM | TGI (DMS 114 small cell lung): > 100 µM | TGI (DMS 273 small cell lung): > 100 µM | TGI (EKVX NSCLC): > 100 µM | TGI (HCC-2998 colon): > 100 µM | TGI (HCT-116 colon): > 100 µM | TGI (HCT-15 colon): > 100 µM | TGI (HL-60(TB) leukemia): > 100 µM | TGI (HOP-62 NSCLC): > 100 µM | TGI (HOP-92 NSCLC): 94.8 µM | TGI (HT29 colon): > 100 µM | TGI (IGROV1 ovarian): > 100 µM | TGI (K-562 leukemia): > 100 µM | TGI (KM12 colon): > 100 µM | TGI (KM20L2 colon): > 100 µM | TGI (LOX IMVI melanoma): > 100 µM | TGI (LXFL 529 NSCLC): > 100 µM | TGI (M14 melanoma): > 100 µM | TGI (M19-MEL melanoma): > 100 µM | TGI (MALME-3M melanoma): > 100 µM | TGI (MOLT-4 leukemia): > 100 µM | TGI (NCI-H226 lung): > 100 µM | TGI (NCI-H23 lung): > 100 µM | TGI (NCI-H460 lung): > 100 µM | TGI (NCI-H522 lung): > 100 µM | TGI (OVCAR-3 ovarian): > 100 µM | TGI (OVCAR-4 ovarian): > 100 µM | TGI (OVCAR-8 ovarian): > 100 µM | TGI (RPMI-8226 leukemia): > 100 µM | TGI (RXF 393 renal): > 100 µM | TGI (SF-268 CNS): > 100 µM | TGI (SF-295 CNS): > 100 µM | TGI (SK-MEL-2 melanoma): > 100 µM | TGI (SK-MEL-28 melanoma): > 100 µM | TGI (SK-MEL-5 melanoma): > 100 µM | TGI (SK-OV-3 ovarian): > 100 µM | TGI (SN12C renal): > 100 µM | TGI (SNB-19 CNS): > 100 µM | TGI (SNB-75 CNS): > 100 µM | TGI (SNB-78 CNS): > 100 µM | TGI (SR leukemia): > 100 µM | TGI (SW-620 colon): > 100 µM | TGI (TK-10 renal): > 100 µM | TGI (U251 CNS): > 100 µM | TGI (UACC-257 melanoma): > 100 µM | TGI (UACC-62 melanoma): > 100 µM | TGI (UO-31 renal): > 100 µM | TGI (XF 498 CNS): > 100 µM
